# Reference: patent US4245100A, “Sydnonimine N-acyl derivatives and method for preparing same” (Vsesojuzny nauchno-issledovatelsky khimikofarmatsevtichesky …, priority 1977, dated 1981)
# Key:
# central nervous system [1] = assay: Locomotory activity of mice (registered with instrument "Animex"); type: in vivo, white male mice; settings: for ED200: Mus musculus, dose causing two-fold potentiation of locomotory activity, read-out: ED200 (locomotion)
# Procedure: (§1) Psychostimulating activity of the compounds according to the present invention has been tested in experiments with mice and rats.
# (§2) The experiments are performed with white male mice with a weight of 18-20 g and with white rat males with a weight of 120 to 140 g with the account of parameters characterising the influence of the compounds according to the present invention on the central nervous system as well as toxicity. Following this objective, there have been studied:
# (1) effect of the compounds on the locomotory activity of the animals (locomotory activity is registered using the instrument "Animex");
# (§3) To quantitatively evaluate the central stimulant activity of the compounds in the tests on mice the values of ED200 (locomotion) are determined, i.e. doses in which the compounds cause a two-fold potentiation of locomotory activity of the animals; in the tests performed with rats there are determined values of ED50 (stereotypy), i.e. doses in which the compounds, one hour after their administration, cause, in 50% of the test rats, stereotypic behavior reactions (ED50 doses are calculated by the Litchfield and Wilkoxsons method).
# (§4) The compounds according to the present invention are sparingly soluble in water. They were administered to the animals in the form of a suspension prepared with the use of a 1% solution of carboxymethylcellulose with the addition of Tween-80® as an emulsifying agent. Since molecular weights of the test compounds differ from each other, their doses are calculated in mcM/kg.
# (§5) In a special series of experiments there has been made a quantitative comparison of the central stimulant effect of the compounds according to the present invention as determined by tests of locomotory activity with mice and stereotypy with rats.
# central nervous system [2] = assay: Stereotypic behavior reactions in rats; type: in vivo, white rat males; settings: Rattus norvegicus, 1 h, dose causing stereotypic behavior reactions in 50% of rats one hour after administration, Litchfield and Wilkoxson method, read-out: ED50 (stereotypy)
# Procedure: as §1, §2
# (2) capability of the compounds of inducing sterotypic behavior reactions;
# as §3, §4, §5
# central nervous system [3] = settings: prior art compound; cited from earlier work
# Solubility = type: physicochemical
# mice = settings: statement on known psychostimulant compounds; cited from earlier work
Compound,ED200 (central nervous system [1]) [µmol/kg],ED50 (central nervous system [2]) [µmol/kg],"phenomenon of ""group toxicity"" (known psychostimulant compounds) (mice)",further results
"CC(Cc1ccccc1)[n+]1cc([N-]C(=O)Nc2ccc(Cl)cc2)on1 (racemic) [Example 4, dl-N-para-chlorophenyl carbamoyl-3-(α-methyl-β-phenylethyl) sydnonimine]",18.2,20,–,–
Cc1cccc(NC(=O)[N-]c2c[n+](C(C)Cc3ccccc3)no2)c1 (racemic) [X is NH--C6 H4 --CH3 --meta],32.3,39.9,–,–
"CC(Cc1ccccc1)[n+]1cc([N-]C(=O)Nc2ccccc2)on1 (racemic) [dl-N-phenylcarbamoyl-3-(α-methyl-β-phenylethyl) sydnonimine, reference compound]",72.6,107,–,psychostimulant activity (known compound) (central nervous system [3]): possesses a psychostimulant activity
"C[C@H](Cc1ccccc1)[n+]1cc([N-]C(=O)Nc2ccccc2)on1 [Example 3, l-3-(α-methyl-β-phenylethyl)-N-phenylcarbamoylsydnonimine]",–,–,–,duration for which maximum locomotory activity is maintained (central nervous system [1]; dose of 40 mcM/kg): 1 to 1.5 h; solubility in acetone (Solubility; acetone): soluble; solubility in chloroform (Solubility; chloroform): soluble; solubility in fats (Solubility; fats): soluble; solubility in water (Solubility; water): substantially insoluble in water
CC(N)Cc1ccccc1 (centres unmarked) [amphetamine],–,–,characteristic,–
C[C@H](N)Cc1ccccc1 [dextramphetamine],–,–,characteristic,–
